# Calls of active or inactive are those of the source.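 How the source made its calls: active means compounds lowering Shn3 signal with a fitted half-maximal concentration at most twice the top tested dose; inconclusive means flat curve with 30 to 70% loss, or poor fit; inactive means the rest.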
# Target: Schnurri-3 (HIVEP3) mRNA
# Assay: endogenous Schnurri-3 transcript knock-down – Clone20 cells, qPCR, dry powder, orthogonal assay for Schnurri-3 inhibitor project, dose response (AID 720695)
# Settings: Shn3 mRNA qPCR, overnight
row,Compound,AC50 [µM]
1,CCOC(=O)c1ccc(NC(=O)Cn2ncc(Cl)c(Cl)c2=O)cc1,11.6
2,CC(C)[C@H](NC(=O)OC(C)(C)C)c1nnc(S(=O)(=O)Cc2c(F)cccc2Cl)o1,22.3
3,CN(C(=O)COc1ccccc1C(=O)NCCOc1ccccc1)c1ccccc1,26.6
4,COc1cc(CN2CCc3ccccc3C2)ccc1O,6.67
5,COc1ccc(NC(=O)c2nc(S(=O)(=O)Cc3cccc(C)c3)ncc2Cl)c(OC)c1,8.91
6,CCCc1nnc(NC(=O)c2nc(S(=O)(=O)Cc3ccc(C)cc3)ncc2Cl)s1,28
7,O=C(c1nnsc1S(=O)c1ccc(Cl)cc1)N1CCOCC1 (stereo not drawn),13.7

# Same assay, conditions: overnight, at 35 µM (top of the series)
row,Compound,"Shn3 expression, relative signal"
1,COc1cc2ncnc(N[C@H](C)c3ccccc3)c2cc1OC,inactive
2,CC(=O)Nc1cccc(NC(=O)CSc2ncc(-c3ccc(Cl)cc3)n2Cc2ccco2)c1,inactive
3,COc1ccc2c(c1)c(CC(=O)Nc1cc(C)ccc1C)c(C)n2C(=O)c1ccc(Cl)cc1,inactive
4,COc1ccc(NS(=O)(=O)c2ccc(C(=O)N3CCCCCC3)cc2)cc1,inactive
5,COc1ccccc1N1CCN(c2ncc(C(=O)N3CCN(c4cccc(Cl)c4)CC3)c3ccccc23)CC1,inactive
6,Nc1nonc1C(=O)NCCNCc1cc(Br)ccc1OCc1ccc(F)cc1,inactive
7,COc1ccc(Nc2nc(N3CCCCC3)c3ccccc3n2)cc1,inactive
8,CN(C)S(=O)(=O)c1cccc(NC(=O)c2cccc(S(=O)(=O)N3CCc4ccccc43)c2)c1,inactive
9,CCOC(=O)C1CCN(C(=O)c2ccc(OCC(=O)Nc3cccc(C(F)(F)F)c3)c(OC)c2)CC1,inactive
10,Cc1cc2c(cc(C(=O)N3CCC(C(=O)NC4CCCC4)CC3)n2Cc2c(F)cccc2Cl)o1,inactive
11,CN(C)c1nc(-c2ccccn2)nnc1-c1ccccc1,inactive
12,CCOC(=O)C1(Cc2ccc(Cl)cc2)CCN(C(C)Cc2ccc(O)c(OC)c2)CC1 (stereo not drawn),inactive
13,Cc1cc(N2CCCC2=O)cc(C)c1S(=O)(=O)NCCOc1ccc(C(C)(C)C)cc1,inactive
14,O=C1CSc2ccc(C(=O)Nc3cccc(S(=O)(=O)Nc4ccc(Br)cc4)c3)cc2N1,inactive
15,CCCOc1ccccc1C1CC(=O)Nc2cc3c(cc21)OCO3 (stereo not drawn),inactive
16,CN(CC(=O)Nc1cccc(S(=O)(=O)N2CCOCC2)c1)CC(=O)Nc1ccc(Cl)c(C(F)(F)F)c1,inactive
17,Cc1ccc2cc(CN(CC3CCCO3)C(=O)NC3CCCCC3)c(=O)[nH]c2c1C (stereo not drawn),inactive
18,O=c1c2ccccc2nc2n1C(CSCc1ccc(Cl)cc1Cl)CS2 (stereo not drawn),inactive
19,CC(C)(C)NC(=O)CSc1nc2ccc(NC(=O)CSc3nnnn3Cc3ccccc3)cc2s1,inactive
20,CC(=O)N1CCN(C(=O)CCc2cc(C(C)(C)C)c(O)c(C(C)(C)C)c2)CC1,inactive
21,Fc1ccc(-n2nnnc2-c2cnc(-c3cccs3)nc2C(F)(F)F)cc1,inactive

# — PubChem BioAssay AID720695 (Broad Institute, 2013)
